Molecular target: T1, NS5B wild-type (Hepatitis C virus genotype 1b, UniProt P26663)
T1 construct: NS5B with a C-terminal 10-His tag was expressed in E. coli; 10-His (C); made in house; host or cells: E. coli
Assay: In-solution binding specificity, ligand-observed MS, wild-type NS5B
Settings: WT + 204; defined as 100%
Source text: To evaluate the binding specificity of fragment 204 to the palm domain of NS5B through interacting with certain residues indicated in the crystallographic data, we prepared two presumable binding-site mutants in the palm domain (C366A and M414T), and a control mutant in the thumb domain (M423T). […] Therefore, this experiment strongly implicated the finding by X-ray crystallography that fragment 204 binds to the palm domain of NS5B through interaction with Cys366 and Met414 was also valid in solution.
NS5B with a C-terminal 10-His tag was expressed in E. coli. Site-directed mutagenesis was performed using the Quick Site-directed mutagenesis kit according to the manufacturer's instructions (Stratagene, China). All constructs were verified by DNA sequencing. […]
In the primary screening, a mixture of 384 fragments (each at a final concentration of 25 μM) and NS5B at 50 μM was prepared in the binding buffer of 20 mM MES (pH 6.5), 300 mM NaCl and 10% glycerol, and incubated for 40 min at 25°C. […] The supernatant containing the ligands was evaporated by a speed vacuum, reconstituted in 80% methanol, and analyzed by LC/MS. […] Samples were all prepared in duplicate and analyzed separately.

Compound: O=C(O)c1ccc(C(F)(F)F)cc1 [Fragment 204]
- MS int. (%): 100.0%

Reference: paper PMC4322365, “A Ligand-observed Mass Spectrometry Approach Integrated into the Fragment Based Lead Discovery Pipeline” (Scientific Reports, 2015)
